Test results: patent US20220221458A1, “NOROVIRUS-BINDING PEPTIDE” (Kao Corporation, priority 2019, published 2022)

System: norovirus VLPs (GII.4, GII.3, GII.17)
Assay: In vitro selection by cDNA display against VLPs with appearance frequency analysis of sequences
Conditions: count among peptide aptamer sequences obtained after in vitro selection cycles (7 cycles GII.4, 5 cycles GII.3 and GII.17)
Method: The constructed cDNA display and VLPs were incubated in 100 μL of a dialysis selection buffer (20 mM HEPES (pH 7.4), 150 mM NaCl, and 0.05% s Tween 20) at the concentrations shown in Table 9 below at 25° C. for 30 minutes. Subsequently, the resultant was diluted to 1 mL with the dialysis selection buffer, and was put in Float-A-Lyzer G2 Dialysis Device CE, 1000kD MWCO (manufactured by Spectrum Laboratories, Inc.) and was dialyzed with 1 L of the dialysis selection buffer as the external solution at 25° C. During the dialysis, the external solution was replaced with new one 3 times every 2 hours, and the dialysis was performed overnight (for 8 hours) after the 4th replacement. The dialysis product was concentrated with Amicon Ultra 100K (manufactured by Merck Millipore S.A.S.) at 14,000×g for 5 minutes.
To an immunoplate (C-BOTTOM, CLEAR, MICROLON (registered trademark), HIGH BINDING, manufactured by Greiner Bio-One), 100 μL of 3 μg/mL GII.3 or GII.17 VLP solution was added and immobilization was performed at 4° C. overnight. Subsequently, the solution was discarded, and 200 μL of a blocking agent (EMD Millipore™ Blok™ NSB Blocking agents, Thermo Fisher Scientific) was added, followed by gently stirring at room temperature for 2 hours for blocking. On this occasion, wells not immobilizing the VLP were also subjected to similar blocking to be used in preselection.
The solution was discarded from the wells, the wells were washed with 200 μL of a wash buffer (10 mM Hepes (pH 7.4), 150 mM NaCl, and 0.05% Tween 20) three times, and 100 μL of cDNA display (constructed from 1.5 pmol of mRNA-linker) was then put in the wells not immobilizing the VLP, followed by gently stirring at room temperature for 30 minutes to perform preselection. Subsequently, the supernatant containing cDNA display that had not bound to the blocking agent was put in the wells immobilizing the VLP, followed by gently stirring at room temperature for 30 minutes to be bound to the VLP. The supernatant was discarded, washing with 100 μL of the wash buffer was performed four times, and 100 μL of a 5′ SDS solution was then added, followed by incubation at 50° C. for 15 minutes to elute the bound cDNA display.
Subsequently, the VLP-cDNA display complex obtained above was diluted to 100 μL with a dialysis selection buffer, and 10 μL of a coprecipitating agent (Quick-Precip Plus Solution, manufactured by EdgeBio) and 220 μL of 100% ethanol were added, followed by centrifugation at 20,000×g for 5 minutes. Subsequently, the supernatant was discarded, and 1 mL of 70, ethanol was added for rinsing. […] The PCR program was (a) 98° C. for 2 minutes, (b) 95° C. for 20 seconds, (c) 69° C. for 20 seconds, (d) 72° C. for 20 seconds (steps (b) to (d) were performed 25 cycles), and (e) 72° C. for 1 minute.
After the in vitro selection cycle (7 cycles for GII.4 and 5 cycles for GII.3 and GII.17 based on the libraries of 7 cycles obtained by GII.4 dialysis), a sequence library was prepared by the following method, and the sequence information was analyzed. The preparation of the sequence library and the sequencing were performed according to the 16S Metagenomic Sequencing Library Preparation protocol (manufactured by Illumina, Inc.).
The Fastq file of the obtained sequence was converted to a Fasta file, all of the obtained sequences were simultaneously translated from the first base of the start codon (ATG) at position 115 to the third base of the cysteine codon (TGC) at position 156 of the library sequence (SEQ ID NO: 279) using software MEGA.

| Substance | Appearance Frequency |
| --- | --- |
| 230 (QYCFVG; Designed peptide) [compound 230] | 6 |
| 235 (RHTQTL; Designed peptide) [compound 235] | 6 |
| 239 (RLRDPQ; Designed peptide) [compound 239] | 6 |
| 43 (HIHGRE; Designed peptide) [compound 43] | 10 |
| 54 (FDHFYS; Designed peptide) [compound 54] | 9 |
| 263 (VSDPVV; Designed peptide) [compound 263] | 6 |
| 92 (TGHIVW; Designed peptide) [compound 92] | 8 |
| 210 (LSLRSQ; Designed peptide) [compound 210] | 6 |
| 182 (GLLIPF; Designed peptide) [compound 182] | 6 |
| 156 (VRNLVH; Designed peptide) [compound 156] | 7 |
| 91 (SSLALH; Designed peptide) [compound 91] | 8 |
| 7 (GWHETE; Designed peptide) [compound 7] | 17 |
| 93 (THACAH; Designed peptide) [compound 93] | 8 |
| 21 (GKFFCH; Designed peptide) [compound 21] | 12 |
| 41 (GNIPGH; Designed peptide) [compound 41] | 10 |
| 17 (RIGHMR; Designed peptide) [compound 17] | 13 |
| 220 (NPVHIK; Designed peptide) [compound 220] | 6 |
| 240 (RNHSRI; Designed peptide) [compound 240] | 6 |
| 180 (GFGQWI; Designed peptide) [compound 180] | 6 |
| 208 (LLGKPV; Designed peptide) [compound 208] | 6 |
| 106 (FPTGTT; Designed peptide) [compound 106] | 7 |
| 95 (VGHVNW; Designed peptide) [compound 95] | 8 |
| 58 (KFSHRK; Designed peptide) [compound 58] | 9 |
| 245 (RYMPVA; Designed peptide) [compound 245] | 6 |
| 59 (MAWIGS; Designed peptide) [compound 59] | 9 |
| 266 (YGKQRG; Designed peptide) [compound 266] | 6 |

| Substance | Appearance Frequency |
| --- | --- |
| 226 (QCELKD; Designed peptide) [compound 226] | 6 |
| 118 (HSSFSS; Designed peptide) [compound 118] | 7 |
| 155 (VMVGPS; Designed peptide) [compound 155] | 7 |
| 214 (MSNKMV; Designed peptide) [compound 214] | 6 |
| 111 (GGGVTT; Designed peptide) [compound 111] | 7 |
| 47 (TTSHFK; Designed peptide) [compound 47] | 10 |
| 261 (VPFPHH; Designed peptide) [compound 261] | 6 |
| 166 (ATITVW; Designed peptide) [compound 166] | 6 |
| 248 (SHWRSY; Designed peptide) [compound 248] | 6 |
| 19 (CTYVVE; Designed peptide) [compound 19] | 12 |
| 176 (FQYAHW; Designed peptide) [compound 176] | 6 |
| 37 (WEVALH; Designed peptide) [compound 37] | 11 |
| 9 (GEHAHS; Designed peptide) [compound 9] | 15 |
| 195 (HSSLVT; Designed peptide) [compound 195] | 6 |
| 188 (HFRRRV; Designed peptide) [compound 188] | 6 |
| 53 (ACRSAF; Designed peptide) [compound 53] | 9 |
| 52 (VRYPEI; Designed peptide) [compound 52] | 10 |
| 82 (ILGGHS; Designed peptide) [compound 82] | 8 |
| 193 (HMMSRL; Designed peptide) [compound 193] | 6 |
| 84 (LASSGH; Designed peptide) [compound 84] | 8 |
| 149 (SDRVIA; Designed peptide) [compound 149] | 7 |
| 128 (LWNMYD; Designed peptide) [compound 128] | 7 |
| 218 (NGHSHA; Designed peptide) [compound 218] | 6 |
| 31 (HIPSRH; Designed peptide) [compound 31] | 11 |
| 222 (NSIAHR; Designed peptide) [compound 222] | 6 |
| 122 (ISRRGH; Designed peptide) [compound 122] | 7 |

| Substance | Appearance Frequency |
| --- | --- |
| 223 (NSRYFT; Designed peptide) [compound 223] | 6 |
| 137 (QDRVTS; Designed peptide) [compound 137] | 7 |
| 86 (MSTHKV; Designed peptide) [compound 86] | 8 |
| 184 (GPCNSA; Designed peptide) [compound 184] | 6 |
| 202 (ILTHQH; Designed peptide) [compound 202] | 6 |
| 83 (KTRAIN; Designed peptide) [compound 83] | 8 |
| 130 (NASRFY; Designed peptide) [compound 130] | 7 |
| 114 (GSLDIM; Designed peptide) [compound 114] | 7 |
| 18 (SRWCLS; Designed peptide) [compound 18] | 13 |
| 64 (RKLFRN; Designed peptide) [compound 64] | 9 |
| 150 (STVRHR; Designed peptide) [compound 150] | 7 |
| 121 (ILISSC; Designed peptide) [compound 121] | 7 |
| 216 (NCRTRP; Designed peptide) [compound 216] | 6 |
| 198 (HYRARY; Designed peptide) [compound 198] | 6 |
| 101 (YEGRND; Designed peptide) [compound 101] | 8 |
| 185 (GRNAGR; Designed peptide) [compound 185] | 6 |
| 135 (NRHLDP; Designed peptide) [compound 135] | 7 |
| 170 (DSKLHN; Designed peptide) [compound 170] | 6 |
| 190 (HKASHW; Designed peptide) [compound 190] | 6 |
| 79 (GWYFHA; Designed peptide) [compound 79] | 8 |
| 15 (SIGVDR; Designed peptide) [compound 15] | 14 |
| 25 (NLYDRF; Designed peptide) [compound 25] | 12 |
| 159 (VYFIPD; Designed peptide) [compound 159] | 7 |
| 45 (RPFTML; Designed peptide) [compound 45] | 10 |
| 96 (VGRFPQ; Designed peptide) [compound 96] | 8 |
| 147 (RSSSGR; Designed peptide) [compound 147] | 7 |

| Substance | Appearance Frequency |
| --- | --- |
| 183 (GMDLRS; Designed peptide) [compound 183] | 6 |
| 26 (TWDLTL; Designed peptide) [compound 26] | 12 |
| 169 (DRWGSK; Designed peptide) [compound 169] | 6 |
| 132 (NHDVRF; Designed peptide) [compound 132] | 7 |
| 38 (AGYPRY; Designed peptide) [compound 38] | 10 |
| 153 (TTKYMW; Designed peptide) [compound 153] | 7 |
| 212 (MDHEMF; Designed peptide) [compound 212] | 6 |
| 207 (LHHSSY; Designed peptide) [compound 207] | 6 |
| 110 (GFAISR; Designed peptide) [compound 110] | 7 |
| 44 (QSSKKF; Designed peptide) [compound 44] | 10 |
| 109 (GCHYQF; Designed peptide) [compound 109] | 7 |
| 108 (FWHARL; Designed peptide) [compound 108] | 7 |
| 100 (WDRPAF; Designed peptide) [compound 100] | 8 |
| 187 (HDYVSE; Designed peptide) [compound 187] | 6 |
| 201 (IKAHTR; Designed peptide) [compound 201] | 6 |
| 88 (SITVLY; Designed peptide) [compound 88] | 8 |
| 81 (HRSNGH; Designed peptide) [compound 81] | 8 |
| 51 (VMCPNR; Designed peptide) [compound 51] | 10 |
| 75 (FTMHTN; Designed peptide) [compound 75] | 8 |
| 20 (DYVFCG; Designed peptide) [compound 20] | 12 |
| 237 (RKCIDR; Designed peptide) [compound 237] | 6 |
| 168 (DKVCKN; Designed peptide) [compound 168] | 6 |
| 30 (DRYSAW; Designed peptide) [compound 30] | 11 |
| 126 (LFHPWV; Designed peptide) [compound 126] | 7 |
| 268 (YRSNHG; Designed peptide) [compound 268] | 6 |
